Experimental data: ChEMBL document CHEMBL1143360, “Synthesis and biological evaluation of curcuminoid pyrazoles as new therapeutic agents in inflammatory bowel disease: effect on matrix metalloproteinases” (Bioorg Med Chem, 2009)
Activity calls are given as the source filed them. The rule behind the calls is not given here.

Columns and labels:
[1] = biological target: T1, Matrix metalloproteinase-9 (Homo sapiens, UniProt P14780); assay: Reduction of MMP9 activity in TNF-alpha/IL1-beta-stimulated human Caco-2 cells treated 1 hr before stimulation by zymography; type: cell-based
[2] = biological target: T1, Matrix metalloproteinase-9; assay: Reduction of MMP9 activity in TNF-alpha/IL1-beta-stimulated human Caco-2 cells at 50 uM treated 1 hr before stimulation by zymography; type: cell-based

T1 sequence (P14780 whole entry): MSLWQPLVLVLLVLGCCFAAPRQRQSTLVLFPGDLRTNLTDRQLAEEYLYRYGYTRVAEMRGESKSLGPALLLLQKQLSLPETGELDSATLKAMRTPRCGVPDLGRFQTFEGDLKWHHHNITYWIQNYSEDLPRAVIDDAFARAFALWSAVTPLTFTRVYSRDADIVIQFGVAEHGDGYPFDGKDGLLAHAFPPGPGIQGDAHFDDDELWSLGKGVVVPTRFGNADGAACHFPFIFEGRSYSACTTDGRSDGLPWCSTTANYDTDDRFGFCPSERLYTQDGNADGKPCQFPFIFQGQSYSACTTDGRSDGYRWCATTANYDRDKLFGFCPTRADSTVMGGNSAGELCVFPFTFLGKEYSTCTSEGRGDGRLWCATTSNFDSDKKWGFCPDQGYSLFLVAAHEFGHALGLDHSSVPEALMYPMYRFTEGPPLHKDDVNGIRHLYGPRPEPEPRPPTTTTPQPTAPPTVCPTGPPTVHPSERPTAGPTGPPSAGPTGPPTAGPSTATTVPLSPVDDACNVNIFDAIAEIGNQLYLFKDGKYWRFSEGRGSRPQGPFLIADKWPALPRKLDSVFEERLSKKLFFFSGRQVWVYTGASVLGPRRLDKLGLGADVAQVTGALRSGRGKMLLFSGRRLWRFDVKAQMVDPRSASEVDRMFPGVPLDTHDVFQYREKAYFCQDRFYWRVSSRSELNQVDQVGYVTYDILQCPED

Compound | IC50 [1] [µM] | Activity [2]
COc1cc(/C=C/C(=O)CC(=O)/C=C/c2ccc(O)c(OC)c2)ccc1O [CURCUMIN] | 8.5 | 
COc1cc(/C=C/c2n[nH]c(C)c2C)ccc1O | 8 | Active
COc1cc(/C=C/c2cc(/C=C/c3ccc(O)c(OC)c3)[nH]n2)ccc1O [CURCUMIN PYRAZOLE] | 19.4 | Active
COc1cc(/C=C/c2cc(C)[nH]n2)ccc1O | 17.6 | Active
